Measured values reported in ChEMBL document CHEMBL1201862, “PubChem BioAssay data set” (2004).
Active and inactive are the calls of the source.

Experiments:
[1] = Counterscreen for activators of the function of SWI/SNF related, matrix associated, actin dependent regulator of chromatin, subfamily a, member 2 (SMARCA2, BRM): Luminescence-based cell-based high throughput dose response assay to identify non-selective compounds using the VP16 reporter assay.; type: functional
[2] = target: SWI/SNF-related matrix-associated actin-dependent regulator of chromatin subfamily A member 2 (Homo sapiens, UniProt P51531); assay: Luminescence-based cell-based high throughput dose response assay to identify activators of the function of SWI/SNF related, matrix associated, actin dependent regulator of chromatin, subfamily a, member 2 (SMARCA2, BRM).; type: functional
[3] = test system: SN12K1; assay: cells; type: functional; conditions: Homo sapiens
[4] = test system: P388/ADR; assay: cells; type: functional; conditions: Mus musculus
[5] = test system: P388; assay: cells; type: functional; conditions: Mus musculus
[6] = Luminescence Cell-Based Dose Retest to Confirm Inhibitors of Cancer Stem Cells. [Related pubchem assays (depositor defined):AID2717, AID2721]; type: functional; conditions: Homo sapiens
[7] = target: Protein Wnt-3a (Mus musculus, UniProt P27467); assay: antagonism of Wnt3a pathway luciferase reporter – Wnt-LIGHT cells, luminescence, selectivity assay for Gli-SUFU antagonist project, dose response (AID 651570); type: functional; conditions: read-out: IC50_Mean;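 also: Wnt-LIGHT reporter cells stimulated with conditioned medium from Wnt3a-producing cells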
[8] = OVCAR8 cell viability loss – plate reader, dry powder samples, PAX8 project, dose response (AID 743197); type: functional, cell-based; conditions: OVCAR-8
[9] = target: Paired box protein Pax-8 (Homo sapiens, UniProt Q06710); assay: PAX8 transcriptional activity inhibition in RMG-I – RMG-I cells, luciferase, cherry-pick, dose response (AID 687027); type: functional, cell-based;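 also: luciferase reporter driven by Pax8 target thyroperoxidase promoter measured by SteadyGlo luminescence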
[10] = IGROV1 cell killing – plate reader, dry powder samples, PAX8 inhibitor project, dose response (AID 743043); type: functional, cell-based; conditions: IGROV-1
[11] = A2780 cell killing – plate reader, dry powder samples, cytotoxicity control, dose response (AID 743046); type: functional, cell-based
[12] = OVCAR-3 cell viability loss – plate reader, dry powder samples, PAX8 inhibitor project, dose response (AID 743044); type: functional, cell-based
[13] = cells; type: functional, cell-based
[14] = target: T1, Trace amine-associated receptor 1 (Homo sapiens, UniProt Q96RJ0); assay: Counterscreen for agonists of the human trace amine associated receptor 1 (hTAAR1): Fluorescence-based cell-based high throughput dose response assay to identify hTAAR1 agonist that also desensitize TAAR1 receptor response.; type: functional
T1 sequence (Q96RJ0 whole entry): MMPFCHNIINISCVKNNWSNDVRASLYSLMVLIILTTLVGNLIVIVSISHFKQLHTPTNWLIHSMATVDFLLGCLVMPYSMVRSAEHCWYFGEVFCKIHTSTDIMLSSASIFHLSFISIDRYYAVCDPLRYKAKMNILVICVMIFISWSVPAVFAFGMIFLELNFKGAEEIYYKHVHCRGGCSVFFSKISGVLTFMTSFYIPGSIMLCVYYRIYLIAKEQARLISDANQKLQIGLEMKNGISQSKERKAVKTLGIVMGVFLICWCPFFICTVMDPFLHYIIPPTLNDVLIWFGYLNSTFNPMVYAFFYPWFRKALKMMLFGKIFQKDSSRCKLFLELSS

[15] = cells; type: functional, cell-based; remark: listed apart in the source
[16] = target: T1, Trace amine-associated receptor 1; assay: Fluorescence-based cell-based high throughput dose response assay to identify agonists of the human trace amine associated receptor 1 (TAAR1).; type: functional
[17] = target: T2, Galanin receptor type 3 (Homo sapiens, UniProt O60755); assay: Fluorescence-based cell-based primary high throughput dose response assay to identify antagonists of the Galanin Receptor 3 (GalR3).; type: functional
T2 sequence (O60755 whole entry): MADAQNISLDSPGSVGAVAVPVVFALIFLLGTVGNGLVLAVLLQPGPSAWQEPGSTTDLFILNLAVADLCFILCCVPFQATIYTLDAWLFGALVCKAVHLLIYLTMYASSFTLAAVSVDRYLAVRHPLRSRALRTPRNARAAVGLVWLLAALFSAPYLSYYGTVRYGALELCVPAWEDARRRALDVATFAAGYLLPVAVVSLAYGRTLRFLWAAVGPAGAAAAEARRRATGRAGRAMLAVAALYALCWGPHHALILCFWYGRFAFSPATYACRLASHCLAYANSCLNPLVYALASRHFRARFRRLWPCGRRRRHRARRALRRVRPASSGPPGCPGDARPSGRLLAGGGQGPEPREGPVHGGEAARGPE

[18] = target: T3, COUP transcription factor 2 (Homo sapiens, UniProt P24468); assay: Luminescence-based cell-based high throughput dose response assay to identify inhibitors of COUP-TFII (NR2F2).; type: functional;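 also: HEK293 cells transiently cotransfected with COUP-TFII expression vector and reporter; luciferase reporter luminescence driven by COUP-TFII from the pX2-168 reporter plasmid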
T3 sequence (P24468 whole entry): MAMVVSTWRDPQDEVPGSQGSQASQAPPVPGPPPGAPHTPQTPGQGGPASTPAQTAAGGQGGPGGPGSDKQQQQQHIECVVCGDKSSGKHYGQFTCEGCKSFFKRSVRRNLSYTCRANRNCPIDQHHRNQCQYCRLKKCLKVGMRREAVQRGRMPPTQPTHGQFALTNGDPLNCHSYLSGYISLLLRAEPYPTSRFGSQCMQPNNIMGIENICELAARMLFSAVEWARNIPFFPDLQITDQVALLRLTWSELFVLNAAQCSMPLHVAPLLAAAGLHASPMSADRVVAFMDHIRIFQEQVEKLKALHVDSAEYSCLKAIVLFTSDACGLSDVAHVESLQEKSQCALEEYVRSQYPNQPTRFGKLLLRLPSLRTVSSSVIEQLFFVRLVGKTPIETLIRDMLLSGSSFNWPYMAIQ

[19] = cells; type: functional, cell-based; conditions: HEK-CNG
[20] = test system: Vero; assay: cells; type: functional, Chlorocebus sabaeus; conditions: Chlorocebus sabaeus, Vero

Chain of Paired box protein Pax-8 (Q06710 whole entry): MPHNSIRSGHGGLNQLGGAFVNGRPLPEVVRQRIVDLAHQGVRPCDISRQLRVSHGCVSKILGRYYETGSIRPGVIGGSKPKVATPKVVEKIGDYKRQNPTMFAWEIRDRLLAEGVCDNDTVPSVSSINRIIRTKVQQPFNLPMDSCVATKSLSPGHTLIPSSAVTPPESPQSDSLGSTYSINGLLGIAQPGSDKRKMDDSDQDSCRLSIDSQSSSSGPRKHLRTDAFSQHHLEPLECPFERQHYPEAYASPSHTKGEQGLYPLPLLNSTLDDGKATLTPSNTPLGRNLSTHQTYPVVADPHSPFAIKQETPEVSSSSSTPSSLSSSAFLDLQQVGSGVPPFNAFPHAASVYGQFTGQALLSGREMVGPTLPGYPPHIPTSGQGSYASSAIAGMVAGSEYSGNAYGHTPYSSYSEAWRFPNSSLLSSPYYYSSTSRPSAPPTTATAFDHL
Chain of Protein Wnt-3a (P27467 whole entry): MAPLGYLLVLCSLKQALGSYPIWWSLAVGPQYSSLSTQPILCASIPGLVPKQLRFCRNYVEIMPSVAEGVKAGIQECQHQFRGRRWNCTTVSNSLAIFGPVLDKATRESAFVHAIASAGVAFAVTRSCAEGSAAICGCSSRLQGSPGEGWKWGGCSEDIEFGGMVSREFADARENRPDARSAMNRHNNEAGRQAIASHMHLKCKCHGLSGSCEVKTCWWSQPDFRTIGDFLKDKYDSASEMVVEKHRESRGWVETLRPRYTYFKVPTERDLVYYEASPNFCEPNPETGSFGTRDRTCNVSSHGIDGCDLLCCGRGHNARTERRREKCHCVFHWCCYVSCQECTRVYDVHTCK
Chain of SWI/SNF-related matrix-associated actin-dependent regulator of chromatin subfamily A member 2 (P51531 whole entry): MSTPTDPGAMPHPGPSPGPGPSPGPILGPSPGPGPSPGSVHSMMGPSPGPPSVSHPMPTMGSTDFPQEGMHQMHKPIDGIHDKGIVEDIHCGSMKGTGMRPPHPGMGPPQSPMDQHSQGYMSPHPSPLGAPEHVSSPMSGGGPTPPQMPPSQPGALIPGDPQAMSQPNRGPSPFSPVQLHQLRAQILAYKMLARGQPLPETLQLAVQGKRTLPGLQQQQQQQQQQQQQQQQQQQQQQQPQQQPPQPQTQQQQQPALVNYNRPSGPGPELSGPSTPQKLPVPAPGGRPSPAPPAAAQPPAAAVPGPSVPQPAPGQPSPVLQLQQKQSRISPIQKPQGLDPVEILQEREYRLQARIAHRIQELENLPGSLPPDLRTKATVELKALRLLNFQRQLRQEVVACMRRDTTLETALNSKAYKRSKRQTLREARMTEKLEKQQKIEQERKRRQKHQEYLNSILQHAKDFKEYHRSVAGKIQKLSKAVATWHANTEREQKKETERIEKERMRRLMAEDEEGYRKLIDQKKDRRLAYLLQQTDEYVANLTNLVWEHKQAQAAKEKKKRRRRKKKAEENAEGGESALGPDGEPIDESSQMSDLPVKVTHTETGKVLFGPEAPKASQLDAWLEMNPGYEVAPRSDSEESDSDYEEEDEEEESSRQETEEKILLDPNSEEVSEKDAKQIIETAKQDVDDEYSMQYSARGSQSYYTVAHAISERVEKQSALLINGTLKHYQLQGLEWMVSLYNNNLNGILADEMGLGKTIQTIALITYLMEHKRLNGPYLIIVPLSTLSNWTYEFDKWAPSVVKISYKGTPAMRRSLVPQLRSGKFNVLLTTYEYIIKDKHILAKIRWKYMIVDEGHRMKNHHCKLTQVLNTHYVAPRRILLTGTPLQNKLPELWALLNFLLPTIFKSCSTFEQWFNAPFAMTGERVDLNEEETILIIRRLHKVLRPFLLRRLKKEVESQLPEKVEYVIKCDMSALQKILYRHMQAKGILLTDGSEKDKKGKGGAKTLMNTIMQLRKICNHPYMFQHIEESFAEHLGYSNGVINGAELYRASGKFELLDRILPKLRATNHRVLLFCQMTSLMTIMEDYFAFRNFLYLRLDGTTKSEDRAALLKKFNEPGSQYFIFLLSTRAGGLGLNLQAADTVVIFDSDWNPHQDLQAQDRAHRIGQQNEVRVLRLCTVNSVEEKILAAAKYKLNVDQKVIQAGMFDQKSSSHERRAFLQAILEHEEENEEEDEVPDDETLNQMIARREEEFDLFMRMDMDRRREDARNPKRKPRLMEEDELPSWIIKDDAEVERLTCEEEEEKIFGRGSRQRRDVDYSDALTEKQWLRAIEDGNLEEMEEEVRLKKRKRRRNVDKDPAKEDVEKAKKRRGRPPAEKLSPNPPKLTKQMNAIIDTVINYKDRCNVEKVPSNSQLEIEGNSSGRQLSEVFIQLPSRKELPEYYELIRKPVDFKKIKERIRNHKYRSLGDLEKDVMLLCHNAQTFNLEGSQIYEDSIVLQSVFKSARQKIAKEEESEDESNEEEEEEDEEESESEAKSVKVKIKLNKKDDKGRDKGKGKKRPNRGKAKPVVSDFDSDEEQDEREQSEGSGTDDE

Q: For `C=C1C(=O)[C@]23C[C@H]1CCC2[C@]1(C)C(=O)CC[C@@](C)(C(=O)O)C1C[C@@H]3O` (stereo partly specified), which EC50 [1] is on record?
A: > 91.2 µM (inactive)

Q: And the EC50 [2]?
A: > 91.2 µM (inactive)

Q: For `CCOCCOc1ccc(OCCOCC)cc1`, which GI50 [3] is on record?
A: 15 µM (inactive)

Q: What about the GI50 [4] of the same molecule?
A: 1.45 µM (inactive)

Q: What about the GI50 [5] of the same molecule?
A: 3.36 µM (inactive)

Q: Which GI50 [3] does the source give for `CSCC(CO)NC(=O)/C=C/c1c(C)[nH]c(=O)[nH]c1=O` (stereo unspecified) here?
A: 518 µM (inactive)

Q: What about the GI50 [4] of the same molecule?
A: > 875 µM (inactive)

Q: And the GI50 [5]?
A: 818 µM (inactive)

Q: What does the source list for `CCOC(=O)c1c(NC(=O)C(=O)N/N=C/c2ccccc2O)sc2c1CCCCC2`?
A: AC50 [6]: 2.31 µM (active); IC50 [7]: 6.55 µM (active)

Q: Which results are given for `CC(C)=CC(=O)OC1C2C(C)=CC(O)C(O)C2(C)C2C3(O)OCC24C(CC(=O)OC14)C(C)C3O` (stereo unspecified)?
A: GI50 [3]: 0.0259 µM (active); GI50 [4]: 1.97 µM (inactive); GI50 [5]: 0.0125 µM (active)

Q: Which results are given for `CC(=O)NCCc1ccc(C(=O)COC(=O)c2cccs2)cc1`?
A: EC50 [1]: > 91.1 µM (inactive); EC50 [2]: > 91.1 µM (inactive)

Q: Which AC50 [8] does the source give for `COc1ccc(-c2ccc3c(c2)[C@@H]2[C@@H](CCN2C(=O)C2CCCCC2)[C@H](CO)N3C)cc1` here?
A: 32.7 µM (active)

Q: What about the AC50 [9] of the same molecule?
A: 6.75 µM (active)

Q: And the AC50 [10]?
A: 47.5 µM (active)

Q: What about the AC50 [11] of the same molecule?
A: 10.7 µM (active)

Q: What about the AC50 [12] of the same molecule?
A: 25.2 µM (active)

Q: For `C[C@@H]1CN([C@H](C)CO)C(=O)c2cc(NC(=O)NC3CCCCC3)ccc2O[C@@H](C)CCCCO[C@H]1CN(C)Cc1ccc(C(F)(F)F)cc1`, which AC50 [8] is on record?
A: 54.1 µM (active)

Q: What about the AC50 [9] of the same molecule?
A: 6.85 µM (active)

Q: And the AC50 [10]?
A: 24.8 µM (active)

Q: And the AC50 [11]?
A: 25.7 µM (active)

Q: What about the AC50 [12] of the same molecule?
A: 12.7 µM (active)

Q: Which results are given for `C[C@@H]1CCCCO[C@@H](CN(C)C(=O)NC2CCCCC2)[C@H](C)CN([C@H](C)CO)C(=O)c2cc(NS(=O)(=O)c3ccc(Cl)cc3)ccc2O1`?
A: AC50 [8]: > 70 µM (inactive); AC50 [9]: 7.57 µM (active); AC50 [11]: 15.7 µM (active); AC50 [12]: 38.3 µM (active)

Q: For `O=C(N[C@@H](Cc1cccnc1)C(=O)N1CCC[C@H]1C(=O)NCCc1ccccc1Cl)C1CCCC1`, which EC50 [13] is on record?
A: > 29.9 µM (inactive)

Q: And the IC50 [14]?
A: 3.72 µM (active)

Q: What about the IC50 [15] of the same molecule?
A: > 29.9 µM (inactive)

Q: And the EC50 [16]?
A: 2.91 µM (active)

Q: Which results are given for `Fc1ccc(CN2CCN(c3ncc(Cc4ccccc4)cn3)CC2)c(Cl)c1`?
A: IC50 [17]: 1.06 µM (active); IC50 [18]: 10.1 µM (inactive); EC50 [19]: > 29.9 µM (inactive)

Q: Which results are given for `N[C@@H](CSCSC[C@H](N)C(=O)O)C(=O)O`?
A: GI50 [3]: > 225 µM (inactive); GI50 [4]: > 225 µM (inactive); GI50 [5]: > 71.1 µM (inactive)

Q: For `COc1ccc(OC)c(Cc2cnc3nc(N)nc(N)c3c2C)c1` [PIRITREXIM ISETHIONATE], which CC50 [20] is on record?
A: 0.37 µM (active)

Q: What about the IC50 [7] of the same molecule?
A: 3.35 µM (active)
